Assays:
[1] = molecular target: T1, JtRdhA (reductive dehalogenase) (Jhaorihella thermophila, UniProt A0A1H5TYU2); assay: substrate turnover by purified enzyme, NADPH consumption and HPLC; type: biochemical
T1 construct: gene SAMN05421751_103106; full-length, N-terminal His-MBP-TEV fusion (JtRdhA^MBP), WP_104007082
T1 sequence (A0A1H5TYU2 1-1069): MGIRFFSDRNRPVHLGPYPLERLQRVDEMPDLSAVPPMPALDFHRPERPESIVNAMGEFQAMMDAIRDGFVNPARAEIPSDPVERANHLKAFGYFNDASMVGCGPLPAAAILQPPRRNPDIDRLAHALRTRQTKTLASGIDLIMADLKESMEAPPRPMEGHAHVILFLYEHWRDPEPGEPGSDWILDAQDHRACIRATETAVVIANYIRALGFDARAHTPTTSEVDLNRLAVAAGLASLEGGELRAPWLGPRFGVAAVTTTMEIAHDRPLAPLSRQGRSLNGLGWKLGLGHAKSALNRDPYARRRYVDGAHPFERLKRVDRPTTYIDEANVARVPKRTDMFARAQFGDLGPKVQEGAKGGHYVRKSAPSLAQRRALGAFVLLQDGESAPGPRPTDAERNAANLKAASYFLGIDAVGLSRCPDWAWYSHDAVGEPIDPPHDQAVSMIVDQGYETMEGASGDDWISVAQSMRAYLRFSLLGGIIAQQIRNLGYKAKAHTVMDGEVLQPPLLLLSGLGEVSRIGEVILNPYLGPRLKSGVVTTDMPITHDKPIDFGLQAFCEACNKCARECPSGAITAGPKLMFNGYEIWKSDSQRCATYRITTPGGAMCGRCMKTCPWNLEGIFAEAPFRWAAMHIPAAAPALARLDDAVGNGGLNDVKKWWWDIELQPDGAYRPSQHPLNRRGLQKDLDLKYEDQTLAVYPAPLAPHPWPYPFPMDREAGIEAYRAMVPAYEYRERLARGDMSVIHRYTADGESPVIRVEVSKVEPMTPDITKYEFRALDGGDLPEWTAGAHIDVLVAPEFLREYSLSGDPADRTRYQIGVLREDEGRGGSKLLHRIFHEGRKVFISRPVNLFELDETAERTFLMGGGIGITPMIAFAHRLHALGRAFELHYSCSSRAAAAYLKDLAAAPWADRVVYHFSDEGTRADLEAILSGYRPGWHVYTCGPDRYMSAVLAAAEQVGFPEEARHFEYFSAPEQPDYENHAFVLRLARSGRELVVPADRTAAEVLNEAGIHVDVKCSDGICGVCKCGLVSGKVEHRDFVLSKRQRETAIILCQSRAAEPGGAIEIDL

[2] = molecular target: T1, JtRdhA (reductive dehalogenase); assay: NADPH consumption assay, Dixon plot vs 35-DB-4-OH; type: biochemical
[3] = molecular target: T1, JtRdhA (reductive dehalogenase); assay: biphasic turnover assay, LC-MS of debrominated products; type: biochemical
[4] = substrate: O=C(O)c1ccc(O)c(Br)c1; assay: steady-state kinetics by NADPH consumption (KM), purified enzyme; type: biochemical, Jhaorihella thermophila; settings: cobalamin, 2x [4Fe-4S], [2Fe-2S], FMN
[5] = substrate: O=C(O)c1cc(Br)c(O)c(Br)c1; assay: EPR of cob(II)alamin with substrate (Br superhyperfine coupling); KM from steady-state NADPH oxidation; type: biochemical, Jhaorihella thermophila; settings: cobalamin, 2x [4Fe-4S], [2Fe-2S], FMN active site; displaces chloride, substrate bromine atoms less than […] Å from the Co2+ ion

With `Oc1ccccc1I` [2-Iodophenol, 2-iodophenol] the “NADPH consumption μM min^-1” value [1] was 106 ± 3 µM/min.

In the case of `O=C(O)c1cc(I)c(O)c(I)c1` [3,5 Diiodo-4-hydroxybenzoic acid], the “NADPH consumption μM min^-1” value [1] is reported as 124 ± 8 µM/min.

With `O=C(O)Cc1ccc(O)c(Br)c1` [3-bromo-4-hydroxyphenylacetic acid] the “NADPH consumption μM min^-1” value [1] was 147 ± 3 µM/min.

`O=C(O)c1cc(Cl)c(O)c(Cl)c1` [35-DC-4-OH, 3,5-dichloro-4-hydroxybenzoic acid] showed a Ki [2] of 13.7 ± 3.6 µM.

For `CC(C)(c1cc(Br)c(O)c(Br)c1)c1cc(Br)c(O)c(Br)c1` [compound 1, tetrabromobisphenol A], the “biphasic turnover assay, LC-MS of debrominated products” value [3] was “one of the most commonly used flame retardants TBBPA was determined to be a substrate for JtRdhA^MBP”.

B1: JtRdhA (reductive dehalogenase) (Jhaorihella thermophila) (protein)
chain: T1 sequence (A0A1H5TYU2 1-1069)
notes: full-length, N-terminal His-MBP-TEV fusion (JtRdhA^MBP), WP_104007082
In the case of B1, the Km [4] is reported as 21 ± 0.2 µM and the Km [5] is reported as 19 ± 0.7 µM.

Reference: paper PMC10463259, “Efficient NADPH-dependent dehalogenation afforded by a self-sufficient reductive dehalogenase” (The Journal of Biological Chemistry, 2023)
